According to patent US9447087B2, “Galactokinase inhibitors for the treatment and prevention of associated diseases and disorders” (UNIVERSITY OF UTAH RESEARCH FOUNDATION, priority 2011, dated 2016):
pIC50: −log10 of the molar value.

These compounds were tested on HEK293 cells (assay: cytotoxicity, Promega CellTiter Glo on HEK293 cells (PubChem ID 2547)). Settings: analyzed after 48 hours.
Assay type: cell-based
Experimental: The selectivity for these analogs against CDP-ME kinase, another member of the GHMP kinase family, was performed using a bioluminescent Kinase Glo™ assay that detects ATP depletion after kinase reaction (PubChem ID 2506). […] All analogs were also tested for cytotoxicity using Promega CellTiter Glo on HEK293 cells that were treated with compounds and analyzed after 48 hours.

| SMILES | cytotoxic effect on HEK293 cells |
| --- | --- |
| Cc1ccc2nc(NC3=NC4(CCCC4)C4=C(CCCC4=O)N3)oc2c1 [Compound 28] | no cytotoxic effect |
| O=C1CCCC2=C1C1(CCCC1)N=C(Nc1nc3cc(Br)ccc3o1)N2 [Compound 27] | no cytotoxic effect |
| Cc1ccc2oc(NC3=NC4(CCCC4)C4=C(CCCC4=O)N3)nc2c1 [Compound 26] | no cytotoxic effect |
| CC1(C)CC(=O)C2=C(C1)NC(Nc1nc3ccccc3o1)=NC21CCCC1 [Compound 8] | no cytotoxic effect |
| O=C1CCCC2=C1C1(CCCC1)N=C(Nc1nc3ccccc3o1)N2 [Compound 4] | no cytotoxic effect |

What follows are compounds tested against GALK (Homo sapiens (Human), UniProt P51570) (assay: primary qHTS assay for inhibitors of GALK (KinaseGlo ATP depletion)). Settings: 5 nM GALK, 35 μM ATP, 1 hr incubation.
GALK, sequence (P51570 whole entry): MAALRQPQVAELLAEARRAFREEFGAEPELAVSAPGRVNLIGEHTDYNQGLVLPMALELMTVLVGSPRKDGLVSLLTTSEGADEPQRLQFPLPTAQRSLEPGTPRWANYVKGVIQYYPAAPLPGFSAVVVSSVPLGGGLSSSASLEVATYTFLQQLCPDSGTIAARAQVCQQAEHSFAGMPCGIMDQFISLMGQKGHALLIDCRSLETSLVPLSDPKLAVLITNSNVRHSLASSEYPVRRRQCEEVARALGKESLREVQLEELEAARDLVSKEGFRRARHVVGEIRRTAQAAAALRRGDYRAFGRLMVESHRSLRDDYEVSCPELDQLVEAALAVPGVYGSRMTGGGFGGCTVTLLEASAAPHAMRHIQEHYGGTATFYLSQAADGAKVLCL
Assay type: biochemical
Parameters: GALK Assay Efficacy: unit not given here
Experimental: Assay details and protocol: The primary assay monitored ATP depletion using Promega's KinaseGlo™ technology, where ATP levels are measured through luminescence generated from firefly luciferase, a bioluminescent ATP-dependent enzymes. […] This was used as the positive control for the assay. […]

| SMILES | pIC50 | GALK Assay Efficacy |
| --- | --- | --- |
| Cc1cccc(C2N=C(Nc3nc4ccccc4o3)NC3=C2C(=O)CCC3)c1 (stereo not drawn) [Compound 46] | 4.21 | – |
| O=C1CCCC2=C1C(c1cccnc1Cl)N=C(Nc1nc3ccccc3o1)N2 (stereo not drawn) [Compound 61] | 4.73 | – |
| CC1=C(C(=O)Nc2nnc(-c3ccccc3)s2)C(c2nn(C)cc2Cl)N=C(Nc2nc3ccccc3o2)N1 (stereo not drawn) [Compound 100] | 5.44 | – |
| CNC(=O)C1=C(C)NC(Nc2nc3ccccc3o2)=NC1c1n[nH]cc1Cl (stereo not drawn) [Compound 109] | 4.74 | – |
| CC1=C(C(=O)NC2CCCCC2)C(c2ccccc2Br)N=C(Nc2nc3ccccc3o2)N1 (stereo not drawn) [Compound 89] | 5.04 | – |
| CNC(=O)C1=C(C)NC(Nc2nc3ccccc3o2)=NC1c1nn(C)cc1Cl (stereo not drawn) [Compound 105] | 4.79 | – |
| O=C1CCCC2=C1C(c1cccc(F)c1)N=C(Nc1nc3ccccc3o1)N2 (stereo not drawn) [Compound 42] | 4.16 | – |
| CC1=C(C(=O)Nc2nc3ccccc3s2)C2(CCCC2)N=C(Nc2nc3ccccc3o2)N1 [Compound 95] | 4.59 | – |
| O=C1CCCC2=C1C(c1ccncc1Cl)N=C(Nc1nc3ccccc3o1)N2 (stereo not drawn) [Compound 55] | 4.81 | – |
| O=C1CCCC2=C1C(c1ccc(Cl)cc1)N=C(Nc1nc3ccccc3o1)N2 (stereo not drawn) [Compound 38] | 4.16 | – |
| O=C1CCCC2=C1C(c1c(Cl)cccc1Cl)N=C(Nc1nc3ccccc3o1)N2 (stereo not drawn) [Compound 60] | 4.89 | – |
| CC1=C(C(=O)Nc2ccon2)C2(CCCC2)N=C(Nc2nc3ccccc3o2)N1 [Compound 94] | 5.19 | – |
| CC1=C(C(=O)N(C)c2ccccc2C)C(c2ccccc2Br)N=C(Nc2nc3ccccc3o2)N1 (stereo not drawn) [Compound 83] | 4.99 | – |
| O=C1CCCC2=C1C(c1cccnc1Br)N=C(Nc1nc3ccccc3o1)N2 (stereo not drawn) [Compound 63] | 4.84 | – |
| COc1ccc(NC(=O)C2=C(C)NC(Nc3nc4ccccc4o3)=NC2c2ccccc2Br)cc1 (stereo not drawn) [Compound 81] | 5.49 | – |
| CC1(C)CC(=O)C2=C(C1)NC(Nc1nc3ccccc3o1)=NC21CCCCC1 [Compound 7] | 5.29 | – |
| CC1=C(C(=O)n2ccc3ccccc32)C(c2ccccc2Br)N=C(Nc2nc3ccccc3o2)N1 (stereo not drawn) [Compound 82] | 4.74 | – |
| O=C1CCCC2=C1C(c1ccccc1Cl)N=C(Nc1nc3ccccc3o1)N2 (stereo not drawn) [Compound 17] | 6.23 | – |
| Cc1ccc(C2N=C(Nc3nc4ccccc4o3)NC3=C2C(=O)CCC3)cc1 (stereo not drawn) [Compound 47] | 4.21 | – |
| O=C1CCCC2=C1C(c1ccc(F)cc1)N=C(Nc1nc3ccccc3o1)N2 (stereo not drawn) [Compound 51] | 4.21 | – |
| CC1=C(C(=O)NCc2ccccc2)C(c2ccccc2Br)N=C(Nc2nc3ccccc3o2)N1 (stereo not drawn) [Compound 92] | 5.19 | – |
| Cc1ccc2nc(NC3=NC4(CCCC4)C4=C(CCCC4=O)N3)oc2c1 [Compound 28] | 4.68 | – |
| O=C1CCCC2=C1C(c1ccccc1Br)N=C(Nc1nc3ccccc3o1)N2 (stereo not drawn) [Compound 41] | 6.13 | – |
| CC1=C(C(=O)Nc2nncs2)C(c2ccccc2Br)N=C(Nc2nc3ccccc3o2)N1 (stereo not drawn) [Compound 86] | 5.49 | – |
| O=C1CCCC2=C1C1(CCCC1)N=C(Nc1nc3cc(Br)ccc3o1)N2 [Compound 27] | 5.13 | – |

| SMILES | pIC50 | GALK Assay Efficacy |
| --- | --- | --- |
| CC1=C(C(=O)Nc2nncs2)C(c2nn(C)cc2Cl)N=C(Nc2nc3ccccc3o2)N1 (stereo not drawn) [Compound 102] | 5.29 | – |
| O=C1CCCC2=C1C(c1ccccc1C(F)(F)F)N=C(Nc1nc3ccccc3o1)N2 (stereo not drawn) [Compound 39] | 4.91 | – |
| Cc1ccc2oc(NC3=NC4(CCCC4)C4=C(CCCC4=O)N3)nc2c1 [Compound 26] | 5.23 | – |
| O=C1CCCC2=C1C(c1cccc(Cl)c1)N=C(Nc1nc3ccccc3o1)N2 (stereo not drawn) [Compound 37] | 4.21 | – |
| CC1=C(C(=O)Nc2ccon2)C(c2nn(C)cc2Cl)N=C(Nc2nc3ccccc3o2)N1 (stereo not drawn) [Compound 112] | 5.04 | – |
| O=C1CCCC2=C1[C@@]1(CCC(c3ccccc3)C1)N=C(Nc1nc3ccccc3o1)N2 (stereo partly drawn) [Compound 12] | 4.33 | – |
| O=C1CCCC2=C1C(c1ccccc1)N=C(Nc1nc3ccccc3o1)N2 (stereo not drawn) [Compound 52] | 4.46 | – |
| CC1(C)N=C(Nc2nc3ccccc3o2)NC2=C1C(=O)CCC2 [Compound 5] | 4.49 | – |
| O=C1CCCC2=C1C(c1n[nH]cc1Br)N=C(Nc1nc3ccccc3o1)N2 (stereo not drawn) [Compound 69] | 5.54 | – |
| CC1(C)CC(=O)C2=C(C1)NC(Nc1nc3ccccc3o1)=NC21CCCC1 [Compound 8] | 5.18 | – |
| CC1CCC2(C1)N=C(Nc1nc3ccccc3o1)NC1=C2C(=O)CCC1 (stereo not drawn) [Compound 14] | 4.93 | – |
| O=C1CCCC2=C1C1(CCS(=O)(=O)C1)N=C(Nc1nc3ccccc3o1)N2 (stereo not drawn) [Compound 24, 2-(benzo[d]oxazol-2-ylamino)-4′,5′,7,8-tetrahydro-1H,2′H-spiro[quinazoline-4,3′-thiophen-1,1-dioxide]-5(6H)-one] | 5.18 | 67.583 |
| O=C1CCCC2=C1C(c1cccc(C(F)(F)F)c1)N=C(Nc1nc3ccccc3o1)N2 (stereo not drawn) [Compound 40] | 4.78 | – |
| CC1=C(C(=O)Nc2nncs2)C2(CCCC2)N=C(Nc2nc3ccccc3o2)N1 [Compound 93] | 5.49 | – |
| O=C1CCCC2=C1C1(CCSC1)N=C(Nc1nc3ccccc3o1)N2 (stereo not drawn) [Compound 21] | 5.58 | – |
| CNC(=O)C1=C(C)NC(Nc2nc3ccccc3o2)=NC12CCCC2 [Compound 111] | 4.69 | – |
| O=C1CCCC2=C1C1(CCSCC1)N=C(Nc1nc3ccccc3o1)N2 [Compound 22] | 5.98 | – |
| COc1ccccc1C1N=C(Nc2nc3ccccc3o2)NC2=C1C(=O)CCC2 (stereo not drawn) [Compound 43] | 4.31 | – |
| O=C1CCCC2=C1C(c1ccncc1)N=C(Nc1nc3ccccc3o1)N2 (stereo not drawn) [Compound 50] | 4.38 | – |
| CC1=C(C(=O)Nc2ccccc2)C(c2ccccc2Br)N=C(Nc2nc3ccccc3o2)N1 (stereo not drawn) [Compound 90] | 5.04 | – |
| O=C1CCCC2=C1C1(CCCOC1)N=C(Nc1nc3ccccc3o1)N2 (stereo not drawn) [Compound 23] | 4.48 | – |
| Cn1cc(Br)c(C2N=C(Nc3nc4ccccc4o3)NC3=C2C(=O)CCC3)n1 (stereo not drawn) [Compound 70] | 5.54 | – |
| Cn1ncc(Cl)c1C1N=C(Nc2nc3ccccc3o2)NC2=C1C(=O)CCC2 (stereo not drawn) [Compound 64] | 4.44 | – |
| O=C1CCCC2=C1C(c1n[nH]cc1Cl)NC(Nc1nc3ccccc3o1)=N2 (stereo not drawn) [Compound 75] | 5.54 | – |
| CC1=C(C(=O)Nc2ccc(Cl)cc2)C(c2ccccc2Br)N=C(Nc2nc3ccccc3o2)N1 (stereo not drawn) [Compound 77] | 5.29 | – |

| SMILES | pIC50 | GALK Assay Efficacy |
| --- | --- | --- |
| O=C1CCCC2=C1C(c1ccccc1I)N=C(Nc1nc3ccccc3o1)N2 (stereo not drawn) [Compound 66] | 5.94 | – |
| CC1=C(C(=O)Nc2nc3ccccc3s2)C(c2n[nH]cc2Cl)N=C(Nc2nc3ccccc3o2)N1 (stereo not drawn) [Compound 107] | 4.94 | – |
| O=C1CCCC2=C1C(c1ncccc1Br)N=C(Nc1nc3ccccc3o1)N2 (stereo not drawn) [Compound 67] | 6.19 | – |
| O=C1CCCC2=C1C(c1ccccc1Cl)N=C(Nc1nc3ccccc3o1)N2 (stereo not drawn) [Compound 57] | 5.58 | – |
| O=C1CCCC2=C1C(c1ncccc1C(F)(F)F)N=C(Nc1nc3ccccc3o1)N2 (stereo not drawn) [Compound 58] | 5.18 | – |
| CC1=C(C(=O)Nc2ccccc2C)C(c2ccccc2Br)N=C(Nc2nc3ccccc3o2)N1 (stereo not drawn) [Compound 78] | 5.34 | – |
| CC1=C(C(=O)Nc2nnc(-c3ccccc3)s2)C(c2n[nH]cc2Cl)N=C(Nc2nc3ccccc3o2)N1 (stereo not drawn) [Compound 108] | 5.29 | – |
| O=C1CCCC2=C1C(c1ccn[nH]1)N=C(Nc1nc3ccccc3o1)N2 (stereo not drawn) [Compound 73] | 4.84 | – |
| O=C1CCC2=C1C(c1ccccc1Cl)N=C(Nc1nc3ccccc3o1)N2 (stereo not drawn) [Compound 16] | 5.03 | – |
| CC1=C(C(=O)Nc2ccon2)C(c2ccccc2Br)N=C(Nc2nc3ccccc3o2)N1 (stereo not drawn) [Compound 84] | 5.24 | – |
| CC1=C(C(=O)Nc2ccccc2Cl)C(c2ccccc2Br)N=C(Nc2nc3ccccc3o2)N1 (stereo not drawn) [Compound 76] | 5.49 | – |
| COc1cccc(C2N=C(Nc3nc4ccccc4o3)NC3=C2C(=O)CCC3)c1 (stereo not drawn) [Compound 44] | 4.73 | – |
| COc1ccc(C2N=C(Nc3nc4ccccc4o3)NC3=C2C(=O)CCC3)cc1 (stereo not drawn) [Compound 45] | 4.21 | – |
| CC1=C(C(=O)Nc2nc3ccccc3s2)C(c2nn(C)cc2Cl)N=C(Nc2nc3ccccc3o2)N1 (stereo not drawn) [Compound 98] | 5.04 | – |
| Cc1cc(C2N=C(Nc3nc4ccccc4o3)NC3=C2C(=O)CCC3)n[nH]1 (stereo not drawn) [Compound 74] | 4.74 | – |
| O=C1CCCC2=C1C(c1cnccc1C(F)(F)F)N=C(Nc1nc3ccccc3o1)N2 (stereo not drawn) [Compound 59] | 5.18 | – |
| O=C1CCCC2=C1C(c1ccncc1Br)N=C(Nc1nc3ccccc3o1)N2 (stereo not drawn) [Compound 71] | 4.69 | – |
| CN(C)c1ccc(C2N=C(Nc3nc4ccccc4o3)NC3=C2C(=O)CCC3)cc1 (stereo not drawn) [Compound 53] | 4.11 | – |
| Cc1ccc(C2N=C(Nc3nc4ccccc4o3)NC3=C2C(=O)CCC3)s1 (stereo not drawn) [Compound 48] | 4.21 | – |
| Cc1ccsc1C1N=C(Nc2nc3ccccc3o2)NC2=C1C(=O)CCC2 (stereo not drawn) [Compound 65] | 5.04 | – |
| O=C1CCCC2=C1C(c1ccncc1Br)N=C(Nc1nc3ccccc3o1)N2 (stereo not drawn) [Compound 68] | 5.84 | – |
| CC1=C(C(=O)NC2CC2)C(c2n[nH]cc2Cl)N=C(Nc2nc3ccccc3o2)N1 (stereo not drawn) [Compound 110] | 4.69 | – |
| CC1=C(C(=O)Nc2ccon2)C(c2nn(C)cc2Cl)N=C(Nc2nc3ccccc3o2)N1 (stereo not drawn) [Compound 97] | 5.09 | – |
| CC1=C(C(=O)N(C)C)C(c2ccccc2Br)N=C(Nc2nc3ccccc3o2)N1 (stereo not drawn) [Compound 91] | 4.69 | – |
| CC1=C(C(=O)NC2CC2)C(c2nn(C)cc2Cl)N=C(Nc2nc3ccccc3o2)N1 (stereo not drawn) [Compound 101] | 4.74 | – |
